Source: patent publication US7230033B2, “Pest control compositions and methods for their use” (United States of America as represented by the Secretary of …, priority 2000, dated 2007)
Converted amounts (≈) assume the structure as drawn. Where two headings read alike, the source gives them in different places. Marks after values point to notes of the source that are not given here.

How the values were obtained:
I. scapularis nymphs = assay: Tick bioassay, treated 2-dram vials, probit analysis; assay type: in vivo, Ixodes scapularis; conditions: for Slope / LC90: 24 h exposure; for Slope: probit; for LC90: NE = not effective at concentrations tested
Source text: A control treated with acetone only was run with each series.
For each time point, if ticks and fleas were incapable of movement, maintaining normal posture, leg coordination, ability to right themselves, or any signs of life, they were considered moribund or dead.

X. cheopis adults = assay: Flea bioassay, treated 2-dram vials, probit analysis; assay type: in vivo, Xenopsylla cheopis; conditions: 24 h exposure; for Slope: probit
Protocol: Med. […] A control treated with acetone only was run with each series. Tick and flea susceptibility was evaluated using a modification of the disposable pipette method of Barnard et al. (J. Econ. Entomol., 74:466-69, 1981) and Maupin and […]. Med. […] The inner surface of 2-dram friction cap vials were treated with the compound/acetone solution, or acetone only as a control, and left to air-dry overnight (see also, […] et al., J. Med. […] Three to 4 holes were made in the plastic cap to allow for air exchange. Nymphal ticks and adult fleas were then placed directly into the vials using forceps. […] For each time point, if ticks and fleas were incapable of movement, maintaining normal posture, leg coordination, ability to right themselves, or any signs of life, they were considered moribund or dead.

Ae. aegypti adults = assay: Adult mosquito bottle bioassay; assay type: in vivo, Aedes aegypti; conditions: for Slope: probit
Protocol: (§1) Adult mosquitoes were tested using the bottle bioassay method of Brogden and McAllister (J. Am. Mosq. Control Assoc., 14:159–64, 1998) with minor modifications. Natural product extracts were two-fold serially diluted for a total of 8 concentrations ranging from 0.002% to 0.25% in 1.5 ml of acetone. Individual dilutions were added to 250 ml Wheaton glass bottles and capped. Bottles were manipulated to evenly coat all inner surfaces. The caps were removed and bottles were allowed to air-dry overnight. Once bottles were completely dry, 10–50 (in some tests 25–50) adult mosquitoes were aspirated into the bottles. Mosquitoes were held in the bottles for 24 h at 23° C. and 85% RH. Morbidity and mortality were recorded at 15, 30, 45, and 60 min and 24 hour intervals. One bottle for each replicate was treated with acetone only and served as a control. The dose-mortality data was evaluated with probit analysis, using the LdP Line software, to determine LC50 and LC90 values.
Carvacrol was combined with compound 7, 9, or 10 at a 1:1 ratio (7.5 μl of carvacrol:7.5 μl of compound 7, 9, or 10 was added to 2,985 μl of acetone for a 0.5% solution, from which serial dilutions were made), and tested as previously described against nymphal ticks and adult and larval mosquitoes.

Ixodes scapularis nymphs = assay: Residual activity, aged treated vials, ticks; assay type: in vivo; conditions: for LC90, residual activity: NE = not effective
Protocol: (§2) Briefly, groups of 10 nymphal I. scapularis and X. cheopis fleas were used in all tests (more than a total of 5,240 nymphs and 4,860 fleas were exposed to the compounds). The inner surface of 2-dram friction cap vials were treated with the compound/acetone solution, or acetone only as a control, and left to air-dry overnight (see also, Panella et al., J. Med. Entomol., 42(3):352-358, 2005. Three to 4 holes were made in the plastic cap to allow for air exchange. Nymphal ticks and adult fleas were then placed directly into the vials using forceps. Vials containing ticks or fleas were placed in desiccators for 24 h at 21° C. and 90% RH. Morbidity and mortality was recorded at 1, 2, 4, 8, and 24 h after initial exposure.

[1] = tested on: Xenopsylla cheopis adults; assay: Residual activity, aged treated vials, fleas; assay type: in vivo
Protocol: as §2

Aedes aegypti adults = assay: Residual activity, aged treated bottles, mosquitoes; assay type: in vivo
Protocol: as §1

[2] = tested on: ticks, fleas, and mosquitoes; assay: Residual activity, general statements (Examples 9, 17); assay type: in vivo
[3] = tested on: Ixodes scapularis nymphal ticks; assay: Tick repellency bioassay; assay type: in vivo
Source text: One-hundred (100) μl of test compound was pipetted onto a cotton-tipped applicator mounted to the bottom center of a 1 dram glass shell vial using non-toxic modeling clay. A total of 8 concentrations were screened with doses ranging from 0.04–5.0%. Applicators treated with acetone only served as controls. A line was drawn around the perimeter of the vial immediate to the base of the treated cotton portion of the applicator. The area above the line was designated the “repellent zone”. The vial was allowed to air-dry 1 h before a single tick was introduced. Vials were covered with a single piece of mesh and fitted with a hollowed-out plastic cap to cover the opening of the vial; this prevented the tick from escaping but allowed for air exchange. Vials were breathed upon by investigators at 1 min intervals and a hand was placed over the test vials to provide stimuli for ticks to pass into the repellent zone. […] If the tick crossed over and remained in the “repellent zone” for ≧5 sec, the tick was deemed non-repelled by the test compound. Each test was replicated 10 times using a new tick for each test. Repellent activity was determined at 1, 2, 3, and 4 h after treatment. Probit analysis was used to determine repellent efficacy (RD50 and RD95).

[4] = tested on: fourth-instar Aedes aegypti larvae; assay: Larval mosquito bioassay; assay type: in vivo; conditions: Aedes aegypti larval mosquitoes, concentration of the 1 ml added to 150 ml water
Protocol: Individual groups of 10 fourth-instar Aedes aegypti larvae were contained in 150 ml of water and exposed to […] of essential oils prepared by 2-fold serial dilutions ranging from 0.06%–5.0% in 1 ml of acetone. A control group of larvae were exposed to 1 ml of acetone only.
It is important to note that larval mosquitoes are tested in their natural environment, i.e., in water. The particular assays used herein involved groups of 10 larval mosquitoes in 150 ml of water. The weight percentages reported for lethal concentration for larval mosquitoes are the weight percentages added to the 150 ml water (as opposed to the final percentage of the tested compound(s) in the 150 ml water). As one of skill in the art will appreciate, test compound(s) added to a volume of water (such as, 150 ml) can be dramatically diluted depending upon the water solubility of the tested compound. […] If the tested compound is an oil (such as, carvacrol, nootkatone, or 13-hydroxy-valencene), it most likely floats on the surface of the water.

[5] = 24 h exposure, NE = not effective at concentrations tested
[6] = 2 weeks after treatment, NE = not effective
[7] = 1 h after compound applied to applicator
[8] = 4 h after compound applied to applicator
[9] = Ixodes scapularis nymphal ticks, alone, or 1:1 with carvacrol (in parenthesis)
[10] = Ixodes scapularis nymphal ticks, alone, or 1:1 with carvacrol (in parenthesis), listed as carvacrol
[11] = Aedes aegypti adult mosquitoes, alone, or 1:1 with carvacrol (in parenthesis)

For `C[C@@H]1CC(=O)C2OC23CCC(C2(C)CO2)C[C@@]13C` (stereo partly drawn) [Compound 18, nootkatone-1,10–11,12-diepoxide], the Slope (I. scapularis nymphs) was 2.131, the Slope (X. cheopis adults) was 1.455 and the Slope (Ae. aegypti adults; 24 h exposure) was 4.472.

In the case of `C=C(C)[C@@H]1CCC2=CC(=O)C[C@@H](C)[C@]2(C)C1` [Compound 8, Nootkatone], the LC90 (I. scapularis nymphs) is reported as 0.015 percent concentration, wt:vol, the Slope (I. scapularis nymphs) is reported as 3.211 and the LC90 (X. cheopis adults; NE = not effective at concentrations tested) is reported as 0.008 percent concentration, wt:vol. For the same compound, the Slope (X. cheopis adults) was 2.949, the LC90 (Ae. aegypti adults; [5]) was 0.0087 percent concentration, wt:vol and the Slope (Ae. aegypti adults; 24 h exposure) was 4.635. The LC50 (Ae. aegypti adults; Aedes aegypti, 24 h exposure, NE = not effective at concentrations tested, read-out: LC50) was 46 µg/mL (≈ 211 µM), the “Slope, residual activity” value (Ixodes scapularis nymphs; 1 week after treatment) was 2.871 and the “Slope, residual activity” value (Ixodes scapularis nymphs; 2 weeks after treatment) was 2.727. The “LC90, residual activity” value (Ixodes scapularis nymphs; 2 weeks after treatment) was 0.056 percent concentration, wt:vol, the “Slope, residual activity” value (Ixodes scapularis nymphs; 4 weeks after treatment) was 2.871 and the “Slope, residual activity” value ([1]; 1 week after treatment) was 3.107. For the same compound, the “LC90, residual activity” value ([1]; 1 week after treatment, NE = not effective) was 0.053 percent concentration, wt:vol, the “LC90, residual activity” value ([1]; 2 weeks after treatment) was 0.081 percent concentration, wt:vol and the “Slope, residual activity” value ([1]; 2 weeks after treatment) was 1.931. The “Slope, residual activity” value ([1]; 4 weeks after treatment) was 1.95, the “Slope, residual activity” value (Aedes aegypti adults; 1 week after treatment) was 3.858 and the “Slope, residual activity” value (Aedes aegypti adults; 2 weeks after treatment) was 4.953. The “LC90, residual activity” value (Aedes aegypti adults; [6]) was 0.012 percent concentration, wt:vol, the “Slope, residual activity” value (Aedes aegypti adults; 4 weeks after treatment) was 7.772 and the residual activity ([2]; ticks) was “considerable biological activity through the four week time period”.

For `CCN(CC)C(=O)c1cccc(C)c1` [Deet, N, N-diethyl-m-toluamide, reference compound], the “Slope (±SEM)” value ([3]; 1 h) was 0.633 (±0.222), the RD50 [3, 7] was 0.167 % (wt:vol) and the RD95 [3, 7] was 50.579 % (wt:vol). For the same compound, the “Slope (±SEM)” value ([3]; 4 h) was 0.485 (±0.212), the RD50 [3, 8] was 0.384 % (wt:vol) and the RD95 [3, 8] was 950.294 % (wt:vol).

`C=C(C=O)C1CCC2=CCC[C@@H](C)[C@]2(C)C1` (stereo partly drawn) [Compound 15, valencene-13-aldehyde] showed a Slope (I. scapularis nymphs) of 2.755, a Slope (X. cheopis adults) of 5.366 and a Slope (Ae. aegypti adults; 24 h exposure) of 8.714. The “Slope, residual activity” value (Ixodes scapularis nymphs; 1 week after treatment) was 2.859, the “LC90, residual activity” value (Ixodes scapularis nymphs; 1 week after treatment) was 0.072 percent concentration, wt:vol and the “Slope, residual activity” value ([1]; 1 week after treatment) was 3.211. The “LC90, residual activity” value (Aedes aegypti adults; 1 week after treatment) was 0.027 percent concentration, wt:vol, the “Slope, residual activity” value (Aedes aegypti adults; 1 week after treatment) was 3.392 and the “Slope, residual activity” value (Aedes aegypti adults; 2 weeks after treatment) was 3.136. The “LC90, residual activity” value (Aedes aegypti adults; [6]) was 0.037 percent concentration, wt:vol and the residual activity ([2]; ticks) was “considerable biological activity through the four week time period”.

With `Cc1ccc(C(C)C)cc1O` [Compound 4, Carvacrol] the LC90 (I. scapularis nymphs) was 0.014 percent concentration, wt:vol, the Slope (I. scapularis nymphs) was 3.906 and the “LC50 (1 h)” value (I. scapularis nymphs; [9]) was 0.019^b % (wt:vol). The “LC50 (24 h)” value (I. scapularis nymphs; [9]) was 0.0068 % (wt:vol), the “LC90 (1 hr)” value (I. scapularis nymphs; [9]) was 0.071 % (wt:vol) and the “LC90 (24 h)” value (I. scapularis nymphs; [9]) was 0.014 % (wt:vol). The “LC50 (1 h)” value (I. scapularis nymphs; [10]) was 0.019 % (wt:vol), the “LC50 (24 h)” value (I. scapularis nymphs; [10]) was “about 0.0068 % (wt:vol)” and the Slope (X. cheopis adults) was 3.413. For the same compound, the LC50 (Ae. aegypti adults; [5]) was 0.0051 percent concentration, wt:vol, the Slope (Ae. aegypti adults; 24 h exposure) was 2.908 and the “LC50 (15 min)” value (Ae. aegypti adults; [11]) was 0.0057^b % (wt:vol). The “LC50 (24 h)” value (Ae. aegypti adults; [11]) was 0.0051 % (wt:vol), the “LC90 (15 min)” value (Ae. aegypti adults; [11]) was 0.017 % (wt:vol) and the “LC90 (24 h)” value (Ae. aegypti adults; [11]) was 0.014 % (wt:vol). The “LC50 (15 min)” value (Ae. aegypti adults; Aedes aegypti adult mosquitoes, alone, or 1:1 with carvacrol (in parenthesis), listed as carvacrol) was 0.0057 % (wt:vol), the residual activity (Ixodes scapularis nymphs; nymphal I. scapularis) was “lacks any residual activity beyond about 1 week” and the “LC50 (1 h)” value [4] was 3.853^b % (wt:vol). For the same compound, the “LC50 (24 h)” value [4] was 0.988 % (wt:vol), the “LC90 (1 hr)” value [4] was 10.478 % (wt:vol) and the “LC90 (24 h)” value [4] was 1.411 % (wt:vol). The “LC50 (1 h)” value ([4]; listed as carvacrol) was 3.853 % (wt:vol), the “LC50 (24 h)” value ([4]; listed as carvacrol) was 1.411 % (wt:vol) and the “Slope (±SEM)” value ([3]; 1 h) was 1.506 (±0.355). The RD50 [3, 7] was 0.088 % (wt:vol), the RD95 [3, 7] was 1.09 % (wt:vol) and the “Slope (±SEM)” value ([3]; 4 h) was 2.907 (±0.755). For the same compound, the RD50 [3, 8] was 0.077 % (wt:vol), the RD95 [3, 8] was 0.283 % (wt:vol) and the “more effective than Deet” value ([3]; at 1 h) was 1.9 fold. For the same compound, the “more effective than Deet” value ([3]; at 4 h) was 46 fold and the residual activity [2] was “little-to-no activity beyond 24 h”.

Compound `C=C(C)C1CCC23OC2C(=O)C[C@@H](C)[C@]3(C)C1` (stereo partly drawn) [Compound 17, nootkatone-1,10-epoxide] has a Slope (I. scapularis nymphs) of 2.883, a Slope (X. cheopis adults) of 2.326 and a Slope (Ae. aegypti adults; 24 h exposure) of 1.346. The RD50 ([3]; 1 hr, combinations 1:1 by weight) was 3×10^−1 % (w/v) and the RD50 ([3]; 4 hr, combinations 1:1 by weight) was 0.135 % (w/v).
